# Measured values: patent US20140135270A1, “MACROCYCLIC COMPOUNDS FOR INHIBITION OF INHIBITORS OF APOPTOSIS” (Ensemble Therapeutics Corp., priority 2012, published 2014)
# Experiments:
# His-BIR3 (241-356, XIAP) = biological target: T1, His-BIR3 (241-356, XIAP) (Homo sapiens, UniProt P98170); assay: XIAP-BIR3/SMAC Homogeneous Time Resolved Fluorescence (HTRF) Assay; type: binding; conditions: fluorescein labeled SMAC peptide
# T1 construct: additions of His-BIR3 (241-356, XIAP), fluorescein labeled SMAC peptide
# T1 sequence (P98170 241-356): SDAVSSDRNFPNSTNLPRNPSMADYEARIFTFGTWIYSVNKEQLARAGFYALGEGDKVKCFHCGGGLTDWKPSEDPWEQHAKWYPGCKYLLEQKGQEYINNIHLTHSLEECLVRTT
# [1] = biological target: T2, His-BIR2-3 (125-356, C202A/C213G, XIAP) (Homo sapiens, UniProt P98170, C202A/C213G); assay: XIAP-BIR2-3 Dimeric SMAC Peptide Homogeneous Time Resolved Fluorescence (HTRF) Assay; type: binding; conditions: fluorescein labeled dimeric SMAC peptide
# T2 construct: additions of His-BIR2-3 (125-356, C202A/C213G, XIAP), fluorescein labeled dimeric SMAC peptide
# T2 sequence (P98170 125-356 C202A/C213G): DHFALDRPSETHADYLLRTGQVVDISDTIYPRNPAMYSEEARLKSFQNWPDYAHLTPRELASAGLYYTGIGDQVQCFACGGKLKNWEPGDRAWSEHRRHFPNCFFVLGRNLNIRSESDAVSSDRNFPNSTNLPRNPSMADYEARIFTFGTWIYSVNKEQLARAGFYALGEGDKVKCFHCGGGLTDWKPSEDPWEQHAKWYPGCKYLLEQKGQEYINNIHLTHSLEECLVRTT
SMILES,"IC50 (His-BIR3 (241-356, XIAP)) [nM]",IC50 [1] [nM]
CN[C@@H](C)C(=O)N[C@H](C(=O)N1C[C@H]2CCCCOc3ccc(cc3)C[C@@H](c3nnn[nH]3)NC(=O)[C@H](Cc3ccc4ccccc4c3)NC(=O)[C@@H]3C[C@@H](CN3C(=O)[C@@H](NC(=O)[C@H](C)NC)C(C)(C)C)n3cc(nn3)COc3ccc(cc3)C[C@@H](C(=O)O)NC(=O)[C@H](Cc3ccc4ccccc4c3)NC(=O)[C@@H]1C2)C(C)(C)C [Example 90],1.7,0.5
CN[C@@H](C)C(=O)NC(C(=O)N1C[C@H]2C/C=C/COc3ccc(cc3)C[C@@H](c3n[nH]c(=O)o3)NC(=O)C(Cc3ccc4ccccc4c3)NC(=O)[C@@H]3C[C@@H](CN3C(=O)[C@@H](NC(=O)[C@H](C)NC)C(C)(C)C)n3cc(nn3)COc3ccc(cc3)C[C@@H](C(=O)O)NC(=O)[C@H](Cc3ccc4ccccc4c3)NC(=O)[C@@H]1C2)C(C)(C)C (stereo partly drawn) [Example 91],2,0.4
CN[C@@H](C)C(=O)NC(C(=O)N1C[C@H]2CCCCOc3ccc(cc3)C[C@@H](c3n[nH]c(=O)o3)NC(=O)C(Cc3ccc4ccccc4c3)NC(=O)[C@@H]3C[C@@H](CN3C(=O)[C@@H](NC(=O)[C@H](C)NC)C(C)(C)C)n3cc(nn3)COc3ccc(cc3)C[C@@H](C(=O)O)NC(=O)[C@H](Cc3ccc4ccccc4c3)NC(=O)[C@@H]1C2)C(C)(C)C (stereo partly drawn) [Example 92],2.9,0.9
CN[C@@H](C)C(=O)N[C@H](C(=O)N1C[C@@H]2C[C@H]1C(=O)NC(Cc1ccc3ccccc3c1)C(=O)N[C@H](c1n[nH]c(=O)n1Cc1ccc(OC)cc1)Cc1ccc(cc1)OC/C=C/C[C@H]1C[C@@H](C(=O)N[C@@H](Cc3ccc4ccccc4c3)C(=O)N[C@H](C(=O)O)Cc3ccc(cc3)OCc3cn2nn3)N(C(=O)[C@@H](NC(=O)[C@H](C)NC)C(C)(C)C)C1)C(C)(C)C (stereo partly drawn) [Example 95],3.1,1.8
CN[C@@H](C)C(=O)N[C@H](C(=O)N1C[C@@H]2C[C@H]1C(=O)NC(Cc1ccc3ccccc3c1)C(=O)N[C@H](C(=O)O)CCCCOC/C=C/C[C@H]1C[C@@H](C(=O)N[C@@H](Cc3ccc4ccccc4c3)C(=O)N[C@H](C(=O)O)Cc3ccc(cc3)OCc3cn2nn3)N(C(=O)[C@@H](NC(=O)[C@H](C)NC)C(C)(C)C)C1)C(C)(C)C (stereo partly drawn) [Example 96],7.1,1
CN[C@@H](C)C(=O)N[C@H](C(=O)N1C[C@@H]2C[C@H]1C(=O)NC(Cc1ccc3ccccc3c1)C(=O)N[C@H](C(=O)O)Cc1ccc(cc1)OCCCC[C@H]1C[C@@H](C(=O)N[C@@H](Cc3ccc4ccccc4c3)C(=O)N[C@H](c3nnn[nH]3)Cc3ccc(cc3)OCc3cn2nn3)N(C(=O)[C@@H](NC(=O)[C@H](C)NC)C(C)(C)C)C1)C(C)(C)C (stereo partly drawn) [Example 99],2.4,3.7
CN[C@@H](C)C(=O)N[C@H](C(=O)N1C[C@@H]2C[C@H]1C(=O)NC(Cc1ccc3ccccc3c1)C(=O)N[C@H](C(=O)NS(=O)(=O)C1CC1)Cc1ccc(cc1)OCCCC[C@H]1C[C@@H](C(=O)N[C@@H](Cc3ccc4ccccc4c3)C(=O)N[C@H](C(=O)NS(=O)(=O)C3CC3)Cc3ccc(cc3)OCc3cn2nn3)N(C(=O)[C@@H](NC(=O)[C@H](C)NC)C(C)(C)C)C1)C(C)(C)C (stereo partly drawn) [Example 100],4.6,4.2
CN[C@@H](C)C(=O)N[C@H](C(=O)N1C[C@@H]2C[C@H]1C(=O)N[C@@H](C)C(=O)N[C@H](C(=O)NS(=O)(=O)C1CC1)Cc1ccc(cc1)OCc1cn(nn1)[C@H]1C[C@@H](C(=O)N[C@@H](Cc3ccc4ccccc4c3)C(=O)N[C@H](C(=O)O)Cc3ccc(cc3)OC/C=C/CO2)N(C(=O)[C@@H](NC(=O)[C@H](C)NC)C(C)(C)C)C1)C(C)(C)C [Example 103],67.2,2.9
CN[C@@H](C)C(=O)N[C@H](C(=O)N1C[C@@H]2C[C@H]1C(=O)N[C@@H](Cc1ccc3ccccc3c1)C(=O)N[C@H](C(=O)O)Cc1ccc(cc1)OC/C=C/CO[C@H]1C[C@@H](C(=O)N[C@@H](C(c3ccccc3)c3ccccc3)C(=O)N[C@H](C(=O)NS(=O)(=O)C3CC3)Cc3ccc(cc3)OCc3cn2nn3)N(C(=O)[C@@H](NC(=O)[C@H](C)NC)C(C)(C)C)C1)C(C)(C)C [Example 104],105,8.7
CN[C@@H](C)C(=O)N[C@H](C(=O)N1C[C@@H]2C[C@H]1C(=O)N[C@@H](Cc1ccc3ccccc3c1)C(=O)N[C@H](C(=O)O)Cc1ccc(cc1)OC/C=C/CO[C@H]1C[C@@H](C(=O)N3Cc4ccccc4C[C@H]3C(=O)N[C@H](C(=O)NS(=O)(=O)C3CC3)Cc3ccc(cc3)OCc3cn2nn3)N(C(=O)[C@@H](NC(=O)[C@H](C)NC)C(C)(C)C)C1)C(C)(C)C [Example 105],49.7,13.2
CN[C@@H](C)C(=O)N[C@H](C(=O)N1C[C@@H]2C[C@H]1C(=O)N[C@@H](Cc1ccc3ccccc3c1)C(=O)N[C@H](C(=O)O)Cc1ccc(cc1)OC/C=C/CO[C@H]1C[C@@H](C(=O)N[C@@H](Cc3ccc(-c4ccccc4)cc3)C(=O)N[C@H](C(=O)NS(=O)(=O)C3CC3)Cc3ccc(cc3)OCc3cn2nn3)N(C(=O)[C@@H](NC(=O)[C@H](C)NC)C(C)(C)C)C1)C(C)(C)C [Example 106],17.9,1.7
CN[C@@H](C)C(=O)N[C@H](C(=O)N1C[C@@H]2C[C@H]1C(=O)N[C@@H](Cc1ccc3ccccc3c1)C(=O)N[C@H](C(=O)NS(=O)(=O)C1CC1)Cc1ccc(cc1)OCc1cn(nn1)[C@H]1C[C@@H](C(=O)N[C@@H](Cc3ccc4ccccc4c3)C(=O)N[C@H](C(=O)O)Cc3ccc(cc3)OC/C=C/CO2)N(C(=O)[C@@H](NC(=O)[C@H](C)NC)C(C)(C)C)C1)C1CCCCC1 [Example 108],90.3,7.8
CN[C@@H](C)C(=O)N[C@H](C(=O)N1C[C@@H]2C[C@H]1C(=O)N[C@@H](Cc1ccc3ccccc3c1)C(=O)N[C@H](C(=O)NS(=O)(=O)C1CC1)Cc1ccc(cc1)OCc1cn(nn1)[C@H]1C[C@@H](C(=O)N[C@@H](Cc3ccc4ccccc4c3)C(=O)N[C@H](C(=O)O)Cc3ccc(cc3)OC/C=C/CO2)N(C(=O)[C@@H](NC(=O)[C@H](C)NC)C(C)(C)C)C1)C1CCOCC1 [Example 109],44.3,4.4
CN[C@@H](C)C(=O)N[C@H](C(=O)N1C[C@@H]2C[C@H]1C(=O)N[C@@H](Cc1ccc3ccccc3c1)C(=O)N[C@H](C(=O)NS(=O)(=O)C1CC1)Cc1ccc(cc1)OCc1cn(nn1)[C@H]1C[C@@H](C(=O)N[C@@H](Cc3ccc4ccccc4c3)C(=O)N[C@H](C(=O)O)Cc3ccc(cc3)OC/C=C/CO2)N(C(=O)[C@@H](NC(=O)[C@H](C)NC)C(C)(C)C)C1)C1CCNCC1 [Example 110],10,1.5

# Further lines, results first:
"IC50 (His-BIR3 (241-356, XIAP)) [nM]",IC50 [1] [nM],SMILES
0.8,0.4,CN[C@@H](C)C(=O)N[C@H](C(=O)N1C[C@@H]2C[C@H]1C(=O)NC(Cc1ccc3ccccc3c1)C(=O)N[C@H](c1nnn[nH]1)Cc1ccc(cc1)OC/C=C/C[C@H]1C[C@@H](C(=O)N[C@@H](Cc3ccc4ccccc4c3)C(=O)N[C@H](C(=O)O)Cc3ccc(cc3)OCc3cn2nn3)N(C(=O)[C@@H](NC(=O)[C@H](C)NC)C(C)(C)C)C1)C(C)(C)C (stereo partly drawn) [Example 93]
2.1,0.6,CN[C@@H](C)C(=O)N[C@H](C(=O)N1C[C@@H]2C[C@H]1C(=O)NC(Cc1ccc3ccccc3c1)C(=O)N[C@H](C(=O)NS(=O)(=O)CCCO)Cc1ccc(cc1)OC/C=C/C[C@H]1C[C@@H](C(=O)N[C@@H](Cc3ccc4ccccc4c3)C(=O)N[C@H](C(=O)O)Cc3ccc(cc3)OCc3cn2nn3)N(C(=O)[C@@H](NC(=O)[C@H](C)NC)C(C)(C)C)C1)C(C)(C)C (stereo partly drawn) [Example 94]
4.4,2.2,CN[C@@H](C)C(=O)N[C@H](C(=O)N1C[C@H]2C/C=C/COc3ccc(cc3)C[C@@H](C(=O)O)NC(=O)[C@H]([C@H](C)c3ccc4ccccc4c3)NC(=O)[C@@H]3C[C@@H](CN3C(=O)[C@@H](NC(=O)[C@H](C)NC)C(C)(C)C)n3cc(nn3)COc3ccc(cc3)C[C@@H](C(=O)NS(=O)(=O)C3CC3)NC(=O)[C@H](Cc3ccc4ccccc4c3)NC(=O)[C@@H]1C2)C(C)(C)C [Example 98]
6.1,1,CN[C@@H](C)C(=O)N[C@H](C(=O)N1C[C@@H]2C[C@H]1C(=O)NC(Cc1ccc3ccccc3c1)C(=O)N[C@H](C(=O)NS(=O)(=O)CCCO)Cc1ccc(cc1)OCCCC[C@H]1C[C@@H](C(=O)N[C@@H](Cc3ccc4ccccc4c3)C(=O)N[C@H](C(=O)O)Cc3ccc(cc3)OCc3cn2nn3)N(C(=O)[C@@H](NC(=O)[C@H](C)NC)C(C)(C)C)C1)C(C)(C)C (stereo partly drawn) [Example 101]
10,35,CN[C@@H](C)C(=O)N[C@H](C(=O)N1C[C@@H]2C[C@H]1C(=O)N[C@@H](Cc1ccc3ccccc3c1)C(=O)N[C@H](C(=O)O)Cc1ccc(cc1)OC/C=C/C[C@H]1C[C@@H](C(=O)N[C@@H](Cc3ccc4ccccc4c3)C(=O)N[C@H](C(=O)NS(=O)(=O)C3CC3)Cc3ccc(cc3)OCc3cnnn32)N(C(=O)[C@@H](NC(=O)[C@H](C)NC)C(C)(C)C)C1)C(C)(C)C [Example 102]
26.1,1.7,CC[C@H](NC(=O)[C@H](C)NC)C(=O)N1C[C@@H]2C[C@H]1C(=O)N[C@@H](Cc1ccc3ccccc3c1)C(=O)N[C@H](C(=O)NS(=O)(=O)C1CC1)Cc1ccc(cc1)OCc1cn(nn1)[C@H]1C[C@@H](C(=O)N[C@@H](Cc3ccc4ccccc4c3)C(=O)N[C@H](C(=O)O)Cc3ccc(cc3)OC/C=C/CO2)N(C(=O)[C@@H](NC(=O)[C@H](C)NC)C(C)(C)C)C1 [Example 107]
34.1,2.6,CN[C@@H](C)C(=O)N[C@H](C(=O)N1C[C@@H]2C[C@H]1C(=O)N[C@@H](Cc1ccc3ccccc3c1)C(=O)N[C@H](C(=O)O)Cc1ccc(cc1)OC/C=C/CO[C@H]1C[C@@H](C(=O)N[C@@H](Cc3ccc4ccccc4c3)C(=O)N[C@H](C(=O)NS(=O)(=O)C3CC3)Cc3ccc(cc3)OCc3cn2nn3)N(C(=O)[C@H](NC(=O)[C@H](C)NC)[C@@H](C)O)C1)C(C)(C)C [Example 111]
